Laboratory results published in patent US10308645B2, “Piperidine oxadiazole and thiadiazole orexin receptor antagonists” (MERCK SHARP & DOHME CORP., priority 2014, dated 2019).

Columns and labels:
human orexin-2 receptor = human orexin-2 receptor (Homo sapiens (Human), UniProt O43614); assay: FLIPR Ca2+ Flux Assay, hOX2R; type: cell-based; settings: CHO cells expressing the receptor; agonist Ala-6,12 human orexin-A
Method: The utility of the compounds in accordance with the present invention as orexin receptor OX1R and/or OX2R antagonists may be readily determined without undue experimentation by methodology well known in the art, including the “FLIPR Ca^2+ Flux Assay” (Okumura et al., Biochem. Biophys. Res. Comm. 280:976-981, 2001). In a typical experiment the OX1 and OX2 receptor antagonistic activity of the compounds of the present invention was determined in accordance with the following experimental method. For intracellular calcium measurements, Chinese hamster ovary (CHO) cells expressing the rat orexin-1 receptor or the human orexin-2 receptor, are grown in Iscove's modified DMEM containing 2 mM L-glutamine, […], 1% hypoxanthine-thymidine supplement, 100 U/ml penicillin, 100 μg/ml streptomycin and 10% heat-inactivated fetal calf serum (FCS). The cells are seeded at 20,000 cells/well into Becton-Dickinson black 384-well clear bottom sterile plates coated with poly-D-lysine. All reagents were from GIBCO-Invitrogen Corp. The seeded plates are incubated overnight at 37° C. and 5% CO2. Ala-6,12 human orexin-A as the agonist is prepared as a 1 mM stock solution in 1% bovine serum albumin (BSA) and diluted in assay buffer (HBSS containing 20 mM HEPES, 0.1% BSA and 2.5 mM probenecid, pH7.4) for use in the assay at a final concentration of 70 pM. Test compounds are prepared as 10 mM stock solution in DMSO, then diluted in 384-well plates, first in DMSO, then assay buffer. On the day of the assay, cells are washed 3 times with 100 μl assay buffer and then incubated for 60 min (37° C., 5% CO2) in 60 μl assay buffer containing 1 μM Fluo-4AM ester, 0.02% pluronic acid, and 1% BSA. The dye loading solution is then aspirated and cells are washed 3 times with 100 μl assay buffer. 30 μl of that same buffer is left in each well. Within the Fluorescent Imaging Plate Reader (FLIPR, Molecular Devices), test compounds are added to the plate in a volume of 25 μl, incubated for 5 min and finally 25 μl of agonist is added. Fluorescence is measured for each well at 1 second intervals for 5 minutes and the height of each fluorescence peak is compared to the height of the fluorescence peak induced by […] Ala-6,12 orexin-A with buffer in place of antagonist. For each antagonist, IC50 value (the concentration of compound needed to inhibit 50% of the agonist response) is determined. Alternatively, compound potency can be assessed by a radioligand binding assay (described in Bergman et. al. Bioorg. Med. Chem. Lett. 2008, 18, 1425-1430) in which the inhibition constant (Ki) is determined in membranes prepared from CHO cells expressing either the OX1 or OX2 receptor. The intrinsic orexin receptor antagonist activity of a compound which may be used in the present invention may be determined by these assays.

[1] = biological target: hOX1R (orexin-1 receptor) (Homo sapiens, UniProt O43613); assay: FLIPR Ca2+ Flux Assay, hOX1R; type: cell-based; settings: CHO cells expressing the receptor; agonist Ala-6,12 human orexin-A

Sequence of human orexin-2 receptor (O43614 whole entry): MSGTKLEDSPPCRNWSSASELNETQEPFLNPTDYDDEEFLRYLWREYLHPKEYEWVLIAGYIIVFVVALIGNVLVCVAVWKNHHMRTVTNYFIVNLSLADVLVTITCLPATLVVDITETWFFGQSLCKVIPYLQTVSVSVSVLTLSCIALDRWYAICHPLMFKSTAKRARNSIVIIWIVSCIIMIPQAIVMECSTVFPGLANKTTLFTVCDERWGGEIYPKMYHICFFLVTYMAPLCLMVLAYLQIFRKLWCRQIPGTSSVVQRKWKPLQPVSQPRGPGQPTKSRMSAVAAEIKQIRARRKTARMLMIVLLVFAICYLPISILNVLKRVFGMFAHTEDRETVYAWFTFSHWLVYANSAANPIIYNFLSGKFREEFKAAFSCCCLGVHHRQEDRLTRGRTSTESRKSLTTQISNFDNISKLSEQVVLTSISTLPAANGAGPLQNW

| SMILES | IC50 (human orexin-2 receptor) [nM] | IC50 [1] [nM] |
| --- | --- | --- |
| C[C@@H]1CC[C@@H](c2noc(C(C)(C)O)n2)CN1C(=O)c1ccc(F)cc1-n1nccn1 [Example 21, 2-{3-[(3R,6R)-1-{[4-Fluoro-2-(2H-1,2,3-triazol-2-yl)phenyl]carbonyl}-6-methylpiperidin-3-yl]-1,2,4-oxadiazol-5-yl}propan-2-ol] | 44 | > 10000 |
| C[C@@H]1CC[C@@H](c2noc(C(C)(C)O)n2)CN1C(=O)c1ccsc1-c1ncccn1 [Example 22, 2-(3-{(3R,6R)-6-methyl-1-[(2-pyrimidin-2-ylthiophen-3-yl)carbonyl]piperidin-3-yl}-1,2,4-oxadiazol-5-yl)propan-2-ol] | 61 | > 10000 |
| C[C@@H]1CC[C@@H](c2noc(C(C)(C)O)n2)CN1C(=O)c1ccccc1-c1ncccn1 [Example 23, 2-(3-{(3R,6R)-6-Methyl-1-[(2-pyrimidin-2-ylphenyl)carbonyl]piperidin-3-yl}-1,2,4-oxadiazol-5-yl)propan-2-ol] | 63 | > 10000 |
| C[C@@H]1CC[C@@H](c2noc(C(C)(C)O)n2)CN1C(=O)c1cscc1-c1ncccn1 [Example 24, 2-(3-{(3R,6R)-6-methyl-1-[(4-pyrimidin-2-ylthiophen-3-yl)carbonyl]piperidin-3-yl}-1,2,4-oxadiazol-5-yl)propan-2-ol] | 76 | > 10000 |
| C[C@@H]1CC[C@@H](c2nc(C(C)(C)C)no2)CN1C(=O)c1ccccc1-n1nccn1 [Example 25, (2R,5R)-5-(3-tert-Butyl-1,2,4-oxadiazol-5-yl)-2-methyl-1-{[2-(2H-1,2,3-triazol-2-yl)phenyl]carbonyl}piperidine] | 87 | 1150 |
| CC(C)c1noc([C@@H]2CC[C@@H](C)N(C(=O)c3ccccc3-n3nccn3)C2)n1 [Example 26, (2R,5R)-2-methyl-5-[3-(1-methylethyl)-1,2,4-oxadiazol-5-yl]-1-{[2-(2H-1,2,3-triazol-2-yl)phenyl]carbonyl}piperidine] | 124 | 4500 |
| C[C@@H]1CC[C@@H](c2nc(C(C)(C)O)no2)CN1C(=O)c1ccccc1-n1nccn1 [Example 27, 2-{5-[(3R,6R)-6-methyl-1-{[2-(2H-1,2,3-triazol-2-yl)phenyl]carbonyl}piperidin-3-yl]-1,2,4-oxadiazol-3-yl}propan-2-ol] | 75 | > 10000 |
| C[C@@H]1CC[C@@H](c2nc(C3CC3)no2)CN1C(=O)c1ccccc1-n1nccn1 [Example 28, (2R,5R)-5-(3-cyclopropyl-1,2,4-oxadiazol-5-yl)-2-methyl-1-{[2-(2H-1,2,3-triazol-2-yl)phenyl]carbonyl}piperidine] | 345 | > 10000 |
| C[C@@H]1CC[C@@H](c2nsc(C(C)(C)O)n2)CN1C(=O)c1ccsc1-n1nccn1 [Example 29, 2-{3-[(3R,6R)-6-Methyl-1-{[2-(2H-1,2,3-triazol-2-yl)thiophen-3-yl]carbonyl}piperidin-3-yl]-1,2,4-thiadiazol-5-yl}propan-2-ol] | 88 | > 10000 |
| CC(C)Oc1ncccc1C(=O)N1C[C@H](c2nsc(C(C)(C)O)n2)CC[C@H]1C [Example 30, 2-{3-[(3R,6R)-6-methyl-1-{[2-(1-methylethoxy)pyridin-3-yl]carbonyl}piperidin-3-yl]-1,2,4-thiadiazol-5-yl}propan-2-ol] | 298 | > 10000 |
| C[C@@H]1CC[C@@H](c2nsc(C(C)(C)O)n2)CN1C(=O)c1cscc1-n1nccn1 [Example 31, 2-{3-[(3R,6R)-6-methyl-1-{[4-(2H-1,2,3-triazol-2-yl)thiophen-3-yl]carbonyl}piperidin-3-yl]-1,2,4-thiadiazol-5-yl}propan-2-ol] | 110 | > 10000 |
| C[C@@H]1CC[C@@H](c2nsc(C(C)(C)O)n2)CN1C(=O)c1ccccc1C1(C#N)CC1 [Example 32, 1-[2-({(2R,5R)-5-[5-(1-hydroxy-1-methylethyl)-1,2,4-thiadiazol-3-yl]-2-methylpiperidin-1-yl}carbonyl)phenyl]cyclopropane-carbonitrile] | 18 | 2420 |
| C[C@@H]1CC[C@@H](c2nsc(C(C)(C)O)n2)CN1C(=O)c1ccccc1CS(C)(=O)=O [Example 33, 2-{3-[(3R,6R)-6-methyl-1-({2-[(methylsulfonyl)methyl]phenyl}carbonyl)piperidin-3-yl]-1,2,4-thiadiazol-5-l}propan-2-ol] | 194 | > 10000 |
| C[C@@H]1CC[C@@H](c2nsc(C(C)(C)O)n2)CN1C(=O)c1ccccc1-n1ncnn1 [Example 34, 2-{3-[(3R,6R)-6-methyl-1-{[2-(2H-tetrazol-2-yl)phenyl]carbonyl}piperidin-3-yl]-1,2,4-thiadiazol-5-yl}propan-2-ol] | 339 | > 10000 |
| C[C@@H]1CC[C@@H](c2nsc(C(C)(C)O)n2)CN1C(=O)c1ccccc1-n1nccn1 [Example 35, 2-{3-[(3R,6R)-6-methyl-1-{[2-(2H-1,2,3-triazol-2-yl)phenyl]carbonyl}piperidin-3-yl]-1,2,4-thiadiazol-5-yl}propan-2-ol] | 27 | 2380 |
| C[C@@H]1CC[C@@H](c2nsc(C(C)(C)O)n2)CN1C(=O)c1ccccc1OC(F)F [Example 36, 2-{3-[(3R,6R)-1-{[2-(difluoromethoxy)phenyl]carbonyl}-6-methylpiperidin-3-yl]-1,2,4-thiadiazol-5-yl}propan-2-ol] | 243 | > 10000 |
| CCOc1ccccc1C(=O)N1C[C@H](c2nsc(C(C)(C)O)n2)CC[C@H]1C [Example 37, 2-(3-{(3R,6R)-1-[(2-ethoxyphenyl)carbonyl]-6-methylpiperidin-3-yl}-1,2,4-thiadiazol-5-yl)propan-2-ol] | 146 | > 10000 |
| C[C@@H]1CC[C@@H](c2nsc(C(C)(C)O)n2)CN1C(=O)c1ccccc1OC(F)(F)F [Example 39, 2-{3-[(3R,6R)-6-methyl-1-{[2-(trifluoromethoxy)phenyl]carbonyl}piperidin-3-yl]-1,2,4-thiadiazol-5-yl}propan-2-ol] | 53 | 6380 |
| C[C@@H]1CC[C@@H](c2nsc(C(C)(C)O)n2)CN1C(=O)c1ccsc1-c1ncccn1 [Example 40, 2-(3-{(3R,6R)-6-Methyl-1-[(2-pyrimidin-2-ylthiophen-3-yl)carbonyl]piperidin-3-yl}-1,2,4-thiadiazol-5-yl)propan-2-ol] | 50 | 9990 |
| C[C@@H]1CC[C@@H](c2nsc(C(C)(C)O)n2)CN1C(=O)c1ccccc1-c1ncccn1 [Example 41, 2-(3-{(3R,6R)-6-Methyl-1-[(2-pyrimidin-2-ylphenyl)carbonyl]piperidin-3-yl}-1,2,4-thiadiazol-5-yl)propan-2-ol] | 48 | > 10000 |
| C[C@@H]1CC[C@@H](c2nsc(C(C)(C)O)n2)CN1C(=O)c1cscc1-c1ncccn1 [Example 42, 2-(3-{(3R,6R)-6-methyl-1-[(4-pyrimidin-2-ylthiophen-3-yl)carbonyl]piperidin-3-yl}-1,2,4-thiadiazol-5-yl)propan-2-ol] | 83 | > 10000 |
| COC(C)(C)c1nc([C@@H]2CC[C@@H](C)N(C(=O)c3ccccc3-n3nccn3)C2)ns1 [Example 43, (2R,5R)-5-[5-(1-methoxy-1-methylethyl)-1,2,4-thiadiazol-3-yl]-2-methyl-1-{[2-(2H-1,2,3-triazol-2-yl)phenyl]carbonyl}piperidine] | 39 | 1410 |
